Values belong to the compound of their own block, whether it stands above or below them.
Legend:
Phosphodiesterase 3 = Phosphodiesterase 3 (Homo sapiens, UniProt Q14432+Q13370); experiment: Inhibition of human recombinant PDE3 expressed in Escherichia coli
[1] = target: T1, cGMP-inhibited 3',5'-cyclic phosphodiesterase 3A (Homo sapiens, UniProt Q14432); experiment: Inhibition of PDE3A (unknown origin)
[2] = target: T2, cGMP-inhibited 3',5'-cyclic phosphodiesterase 3B (Homo sapiens, UniProt Q13370); experiment: Inhibition of PDE3B (unknown origin)
[3] = target: T1, cGMP-inhibited 3',5'-cyclic phosphodiesterase 3A; experiment: Binding affinity to PDE3A (unknown origin) assessed as dissociation constant
Ribonuclease SLFN12 [4] = target: T3, Ribonuclease SLFN12 (Homo sapiens, UniProt Q8IYM2); experiment: Binding affinity to SLFN12 (unknown origin) assessed as dissociation constant
[5] = target: T2, cGMP-inhibited 3',5'-cyclic phosphodiesterase 3B; experiment: Binding affinity to human recombinant PDE3B expressed as Escherichia coli assessed as dissociation constant
Ribonuclease SLFN12 [6] = target: T3, Ribonuclease SLFN12; experiment: Binding affinity to human recombinant SLFN12 expressed as Escherichia coli assessed as dissociation constant
HeLa [7] = experiment: Cytotoxicity against human HeLa cells assessed as reduction in cell viability after 72 hrs by MTT assay; assay type: functional, cell-based
[8] = Antiplatelet activity against ADP-induced Wistar rat platelet aggregation assessed as inhibition of platelet aggregation; assay type: functional, cell-based
[9] = Antiplatelet aggregation activity in rabbit platelet-rich plasma assessed as reduction in ADP-induced aggregation incubated for 5 mins by aggregometry; assay type: functional, cell-based; conditions: Oryctolagus cuniculus
[10] = Half life in Wistar rat at 0.29 to 4.86 mg/kg, po; assay type: ADME, organism-based; conditions: in vivo, dose 0.29-4.86 mg/kg
[11] = Half life in Beagle dog at 0.29 to 4.86 mg/kg, po; assay type: ADME, organism-based, Canis lupus familiaris; conditions: in vivo, dose 0.29-4.86 mg/kg
[12] = Inhibition of Rhesus monkey blood platelet aggregation at 4 mg/kg, po; assay type: functional; conditions: Macaca mulatta
[13] = Inhibition of rhesus monkey blood platelet aggregation at 1 mg/kg, po; assay type: functional; conditions: Macaca mulatta
Oryctolagus cuniculus = experiment: Antithrombotic activity in New Zealand White biolaser-induced oral dosed rabbit model assessed as reduction in thrombus mass; assay type: functional
[14] = Antiplatelet aggregation activity in rabbit platelet rich plasma assessed as reduction in ADP-induced platelet aggregation; assay type: functional, cell-based; conditions: Oryctolagus cuniculus
[15] = Antiplatelet activity in rabbit platelet rich plasma assessed as inhibition of collagen-induced platelet aggregation; assay type: functional, cell-based; conditions: Oryctolagus cuniculus
[16] = Antiplatelet activity in rabbit platelet rich plasma assessed as inhibition of thrombin-induced platelet aggregation; assay type: functional, cell-based; conditions: Oryctolagus cuniculus
[17] = Antiplatelet activity in rabbit platelet rich plasma assessed as inhibition of arachidonic acid-induced platelet aggregation; assay type: functional, cell-based; conditions: Oryctolagus cuniculus
[18] = Antiplatelet activity in rabbit platelet rich plasma assessed as inhibition of antigen-antibody-induced platelet aggregation; assay type: functional, cell-based; conditions: Oryctolagus cuniculus
[19] = Antiplatelet aggregation activity in Sprague-Dawley rat platelet rich plasma assessed as reduction in ADP-induced platelet aggregation; assay type: functional, cell-based
[20] = Antiplatelet aggregation activity in Sprague-Dawley rat platelet rich plasma assessed as reduction in collagen-induced platelet aggregation; assay type: functional, cell-based
[21] = Antiplatelet aggregation activity in rhesus monkey platelet rich plasma assessed as reduction in ADP-induced platelet aggregation; assay type: functional, cell-based; conditions: Macaca mulatta
[22] = Antiplatelet aggregation activity in rhesus monkey platelet rich plasma assessed as reduction in collagen-induced platelet aggregation; assay type: functional, cell-based; conditions: Macaca mulatta
[23] = Antiplatelet aggregation activity in dog rich plasma assessed as reduction in ADP-induced platelet aggregation; assay type: functional, cell-based; conditions: Canis lupus familiaris
[24] = Antiplatelet aggregation activity in human rich plasma assessed as reduction in ADP-induced platelet aggregation; assay type: functional, cell-based
[25] = Antiplatelet aggregation activity in human rich plasma assessed as reduction in collagen-induced platelet aggregation; assay type: functional, cell-based
HeLa [26] = experiment: Antiproliferative activity against human HeLa cells assessed as reduction in cell viability measured after 72 hrs by MTT assay; assay type: functional, cell-based
HeLa [27] = experiment: Antiproliferative activity against human HeLa cells assessed as reduction in cell growth; assay type: functional, cell-based
[28] = Antiproliferative activity against human QGY-7701 cells assessed as reduction in cell viability measured after 72 hrs by MTT assay; assay type: functional, cell-based; conditions: QGY7701, 72 h

T3 sequence (Q8IYM2 whole entry): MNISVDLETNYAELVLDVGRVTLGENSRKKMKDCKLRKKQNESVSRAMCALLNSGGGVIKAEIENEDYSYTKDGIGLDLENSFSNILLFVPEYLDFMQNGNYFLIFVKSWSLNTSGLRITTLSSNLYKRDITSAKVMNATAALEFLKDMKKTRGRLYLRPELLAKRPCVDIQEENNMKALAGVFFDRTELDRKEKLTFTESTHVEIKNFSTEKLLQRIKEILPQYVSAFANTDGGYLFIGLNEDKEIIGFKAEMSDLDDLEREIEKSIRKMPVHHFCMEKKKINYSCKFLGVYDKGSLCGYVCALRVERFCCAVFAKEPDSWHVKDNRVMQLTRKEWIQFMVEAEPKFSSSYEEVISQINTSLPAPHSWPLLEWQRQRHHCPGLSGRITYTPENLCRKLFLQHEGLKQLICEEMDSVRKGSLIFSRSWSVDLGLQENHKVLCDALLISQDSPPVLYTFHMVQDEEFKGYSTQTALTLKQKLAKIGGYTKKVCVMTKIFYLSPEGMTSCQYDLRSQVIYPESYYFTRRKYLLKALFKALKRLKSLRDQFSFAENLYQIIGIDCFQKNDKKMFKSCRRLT
T2 sequence (Q13370 whole entry): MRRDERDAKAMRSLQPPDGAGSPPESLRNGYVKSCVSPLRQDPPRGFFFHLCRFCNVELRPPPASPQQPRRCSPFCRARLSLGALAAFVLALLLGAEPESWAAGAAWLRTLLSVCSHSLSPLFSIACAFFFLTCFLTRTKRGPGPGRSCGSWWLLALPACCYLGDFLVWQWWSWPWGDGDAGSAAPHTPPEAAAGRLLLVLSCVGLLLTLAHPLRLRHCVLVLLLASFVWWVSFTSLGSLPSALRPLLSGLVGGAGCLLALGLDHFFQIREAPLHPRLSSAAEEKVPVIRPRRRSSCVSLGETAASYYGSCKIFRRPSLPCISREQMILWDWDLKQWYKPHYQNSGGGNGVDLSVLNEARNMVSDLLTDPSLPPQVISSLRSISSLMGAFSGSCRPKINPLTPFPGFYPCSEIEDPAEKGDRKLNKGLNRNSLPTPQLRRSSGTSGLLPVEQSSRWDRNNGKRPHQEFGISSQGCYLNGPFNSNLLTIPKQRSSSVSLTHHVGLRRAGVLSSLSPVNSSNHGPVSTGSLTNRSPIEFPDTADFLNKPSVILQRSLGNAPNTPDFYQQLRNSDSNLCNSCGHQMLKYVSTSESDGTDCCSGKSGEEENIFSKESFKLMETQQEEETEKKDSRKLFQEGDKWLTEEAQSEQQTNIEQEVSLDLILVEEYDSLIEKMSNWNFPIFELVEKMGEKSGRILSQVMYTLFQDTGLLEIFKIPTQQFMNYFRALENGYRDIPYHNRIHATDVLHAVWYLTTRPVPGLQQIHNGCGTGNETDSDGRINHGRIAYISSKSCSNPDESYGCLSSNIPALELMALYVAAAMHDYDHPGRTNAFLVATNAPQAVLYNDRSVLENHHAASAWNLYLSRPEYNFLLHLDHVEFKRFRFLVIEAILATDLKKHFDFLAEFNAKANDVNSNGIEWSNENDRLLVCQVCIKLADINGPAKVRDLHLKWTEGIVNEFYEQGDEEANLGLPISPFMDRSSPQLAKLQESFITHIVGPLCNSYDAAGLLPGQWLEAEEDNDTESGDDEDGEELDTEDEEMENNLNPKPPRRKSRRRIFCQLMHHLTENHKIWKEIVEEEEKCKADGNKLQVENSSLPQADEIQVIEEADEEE
T1 sequence (Q14432 whole entry): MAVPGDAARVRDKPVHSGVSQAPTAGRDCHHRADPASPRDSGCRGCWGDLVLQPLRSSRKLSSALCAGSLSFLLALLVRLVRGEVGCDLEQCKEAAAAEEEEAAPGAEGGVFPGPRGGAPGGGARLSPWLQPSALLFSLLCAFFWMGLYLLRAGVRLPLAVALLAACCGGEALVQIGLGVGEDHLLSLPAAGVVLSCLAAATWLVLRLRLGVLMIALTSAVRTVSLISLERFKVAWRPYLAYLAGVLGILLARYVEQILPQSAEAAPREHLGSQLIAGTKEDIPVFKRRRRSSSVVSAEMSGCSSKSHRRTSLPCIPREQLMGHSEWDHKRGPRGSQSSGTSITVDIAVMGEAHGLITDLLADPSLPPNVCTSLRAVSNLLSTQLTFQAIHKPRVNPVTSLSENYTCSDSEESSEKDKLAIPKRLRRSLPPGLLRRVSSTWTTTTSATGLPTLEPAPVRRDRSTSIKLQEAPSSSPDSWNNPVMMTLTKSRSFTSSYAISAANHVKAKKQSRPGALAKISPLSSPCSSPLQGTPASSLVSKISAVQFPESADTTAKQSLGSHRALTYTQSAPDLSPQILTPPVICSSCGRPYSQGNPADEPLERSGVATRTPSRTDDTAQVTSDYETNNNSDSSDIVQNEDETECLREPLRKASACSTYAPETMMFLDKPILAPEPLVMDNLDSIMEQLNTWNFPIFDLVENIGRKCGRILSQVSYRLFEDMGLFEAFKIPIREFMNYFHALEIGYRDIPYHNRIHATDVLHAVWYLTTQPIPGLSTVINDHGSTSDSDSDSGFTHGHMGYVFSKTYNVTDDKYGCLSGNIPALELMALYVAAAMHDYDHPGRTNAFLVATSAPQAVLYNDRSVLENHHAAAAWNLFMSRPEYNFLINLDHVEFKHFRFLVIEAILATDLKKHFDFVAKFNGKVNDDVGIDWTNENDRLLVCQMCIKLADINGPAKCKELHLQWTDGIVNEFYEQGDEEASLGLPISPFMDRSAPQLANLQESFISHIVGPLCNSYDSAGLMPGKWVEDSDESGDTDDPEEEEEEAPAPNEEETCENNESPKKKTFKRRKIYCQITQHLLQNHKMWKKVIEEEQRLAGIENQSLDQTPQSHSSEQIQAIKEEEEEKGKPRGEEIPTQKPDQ

IC50 (Phosphodiesterase 3): 90 nM
Structure (SMILES): CC1CC(=O)NN=C1c1ccc2c(c1)CCC(=O)N2C (stereo unspecified)

IC50 [1]: 25 nM | IC50 [2]: 100 nM | Kd [3]: 40 nM | Kd (Ribonuclease SLFN12 [4]): 870 nM | Kd [5]: 320 nM | Kd (Ribonuclease SLFN12 [6]): 65 nM
Structure (SMILES): CCN(CC)c1ccc(C2=NNC(=O)C[C@H]2C)cc1[N+](=O)[O-]

Structure (SMILES): O=C1CN2Cc3c(ccc(-c4ccc(Cl)cc4)c3Cl)N=C2N1
EC50 (HeLa [7]): 1.8 nM

Structure (SMILES): O=C1CN2Cc3c(ccc(Br)c3Cl)N=C2N1
EC50 (HeLa [7]): 2.53 nM

Structure (SMILES): O=C1CN2Cc3c(ccc(-c4ccoc4)c3Cl)N=C2N1
EC50 (HeLa [7]): 0.6 nM

Structure (SMILES): C[C@@H]1OC(=O)NN=C1c1ccc(-c2ccc(F)cc2)c(C(F)(F)F)c1
EC50 (HeLa [7]): 1.3 nM

Structure (SMILES): Cc1ccccc1-c1ccc2c(c1Cl)CN1CC(=O)NC1=N2
EC50 (HeLa [7]): 1.09 nM

Structure (SMILES): Cc1cccc(-c2ccc3c(c2Cl)CN2CC(=O)NC2=N3)c1
EC50 (HeLa [7]): 1.37 nM

Structure (SMILES): O=C1CN2Cc3c(Cl)cccc3N=C2N1
EC50 (HeLa [7]): 42.9 nM

Structure (SMILES): CCc1ccc(-c2ccc3c(c2Cl)CN2CC(=O)NC2=N3)cc1
EC50 (HeLa [7]): 1.8 nM

Structure (SMILES): N#Cc1ccc(-c2ccc3c(c2Cl)CN2CC(=O)NC2=N3)cc1
EC50 (HeLa [7]): 2.38 nM

IC50 (Phosphodiesterase 3): 32 nM | EC50 [8]: 48 nM
Structure (SMILES): O=C1NC2=Nc3ccc(Cl)c(Cl)c3CN2C1O (stereo unspecified)

Structure (SMILES): O=C1CN2Cc3c(ccc(F)c3Cl)N=C2N1
EC50 (HeLa [7]): 34.2 nM

Structure (SMILES): O=C1CN2Cc3c(ccc(-c4ccncc4)c3Cl)N=C2N1
EC50 (HeLa [7]): 6.22 nM

Structure (SMILES): O=C1CN2Cc3c(ccc(-c4ccccc4)c3Cl)N=C2N1
EC50 (HeLa [7]): 0.56 nM

Structure (SMILES): Cc1ccc(-c2ccc3c(c2Cl)CN2CC(=O)NC2=N3)cc1
EC50 (HeLa [7]): 0.3 nM

Structure (SMILES): O=C1CN2Cc3c(ccc(-c4ccc(O)cc4)c3Cl)N=C2N1
EC50 (HeLa [7]): 12.3 nM

Structure (SMILES): O=C1CN2Cc3c(ccc(-c4ccsc4)c3Cl)N=C2N1
EC50 (HeLa [7]): 1.77 nM

Structure (SMILES): O=C1CN2Cc3c(cc(Cl)c(-c4ccccc4)c3Cl)N=C2N1
EC50 (HeLa [7]): 1.14 nM

EC50 [9]: < 1 µg/mL | half-life [10]: 7 h | half-life [11]: 19 h | EC50 [14]: 1200 nM | EC50 [15]: 310 nM | EC50 [16]: 700 nM | EC50 [17]: 390 nM | EC50 [18]: 740 nM | EC50 [19]: 270 nM | EC50 [20]: 150 nM | EC50 [21]: 500 nM | EC50 [22]: 80 nM | EC50 [23]: 310 nM | EC50 [24]: 400 nM | EC50 [25]: 80 nM | EC50 [8]: 27 nM | EC50 (HeLa [26]): 5.12 nM | EC50 (HeLa [27]): 4 nM
Structure (SMILES): O=C1CN2Cc3c(ccc(Cl)c3Cl)N=C2N1 [ANAGRELIDE]
inhibition in vivo at 4 mg/kg [12]: 47% | inhibition in vivo at 1 mg/kg [13]: 24% | ED50 (Oryctolagus cuniculus): 2.5 mg/kg | EC50 (HeLa [7]): 6.67 nM

IC50 (Phosphodiesterase 3): 200 nM
Structure (SMILES): O=C1CCc2cc(OCCCCc3nnnn3C3CCCCC3)ccc2N1 [CILOSTAZOL]

Structure (SMILES): C[C@]12CC[C@@H]3c4ccc(O)cc4CC[C@H]3[C@@H]1CC[C@@H]2O [ESTRADIOL]
EC50 (HeLa [7]): 0.7 nM

IC50 (Phosphodiesterase 3): 580 nM
Structure (SMILES): C[C@@H]1C(=O)NC2=Nc3cccc(Cl)c3CN21 [QUAZINONE]

Structure (SMILES): COc1cc(-c2ccc(=O)[nH]n2)ccc1OC(F)F [ZARDAVERINE]
EC50 [28]: 56.8 nM
